Test [1] deals with human liver cancer cell strain HepG2. In words: MTT growth inhibition on HepG2.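 Also: adherent cells in 96-well plates treated with a concentration series for 24, 48 or 72 h, MTT absorbance read at 490 nm, inhibition computed relative to untreated control wells.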 Format: cell-based.
Description: (§1) By using an MTT method, a sample solution to be tested was added to a 96-well plate in which cancer cells were adherently grown. Culturing was performed for a certain period, and the growth inhibition effect of a compound on a human cancer cell strain for primary screening was measured to determine the anti-cancer activity of the compound.
(§2) Cell culture: A cell incubator was set to conditions of 37° C., 5% CO2, and a saturated humidity, cells were cultured under these conditions, and the cell medium was a DMEM complete medium, wherein 10% fetal bovine serum, 100 IU/mL penicillin, and 100 μg/mL streptomycin were comprised.
(§3) The single cell suspension was diluted to 5×10^3/100 μL after counting, inoculated on a 96-well cell culture plate (triplicate), and adherently cultured overnight;
(§4) After 24 h of adhesion, the complete medium was discarded, 100 μL-sample-solutions to be tested having different concentrations were sequentially added to the 96-well plate according to a concentration gradient, and incubations were continued for 24 h, 48 h, and 72 h;
(§5) The culture liquid was discarded, a 0.5 mg/mL MTT diluted working liquid was added, and incubation was performed for 4 h by placing in an incubator;
(§6) The culture liquid was discarded, 100 μL of DMSO was added, low-speed oscillation was performed for 10 min by placing on a shaker, and the spectrophotometric value of each well was measured at a wavelength of 490 nm by using a microplate reader. Statistical analysis was performed and tumor cell growth inhibition rate was calculated according to the equation: Growth inhibition rate=(OD value of control group−OD value of experimental group)/OD value of control group.
(§7) Culturing was performed for a certain period, the growth inhibition effect of a compound on 3 human cancer cell strains for primary screening was measured to determine the anti-cancer activity of the compound, and a growth inhibition curve was plotted.
The subject of test [2] is human cervical cancer Hela cell strains. In words: MTT growth inhibition on Hela.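 Also: compound exposure of 24, 48 or 72 h in DMEM with 10% fetal bovine serum, MTT absorbance read at 490 nm, inhibition calculated relative to control group OD.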
Description: as §1, §2, §3, §4, §5, §6, §7
In test [3] the test system is human gastric cancer cell strain MGC-803. The test is described as follows: MTT growth inhibition on MGC-803.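 Also: adherent cells exposed to compound over a concentration gradient for 24, 48 and 72 h, MTT absorbance at 490 nm, inhibition relative to untreated control wells.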
Description: as §1, §2, §3, §4, §5, §6, §7
Setting [4] is: Homo sapiens, HepG2, Table 1, MTT, read-out: IC50 HepG2.
Where [5] appears, read: Homo sapiens, HeLa, read-out: IC50 HeLa.
Where [6] appears, read: Homo sapiens, MGC-803, read-out: IC50 MGC-803.
The mark [7] stands for this setting: Homo sapiens, HepG2, read-out: IC50 HepG2.
Where [8] appears, read: Homo sapiens, HeLa, read-out: IC50 HeLa, Table 1, MTT.
Setting [9] is: Homo sapiens, MGC-803, read-out: IC50 MGC-803, Table 1, MTT.

Read-outs that look alike come from different tables or passages of the source.

`COc1cc(NC(=O)Nc2ccc(Cl)c(Cl)c2)c2c(c1O)-c1c(OC)c(OC)cc3c1C(C2)N(C)CC3` (stereo not drawn) [Compound 2, 8-(N-(3′,4′-dichloro-phenyl))-ureido-isocorydine]: the half-maximal inhibitory concentration (IC50) amounted to 28.4 µM in test [1] (setting [4]), 21.7 µM in test [2] (setting [5]) and 30 µM in test [3] (setting [6]).

In the case of `COc1cc(NC(=O)Nc2ccc(C)cc2)c2c(c1OC(=O)Nc1ccc(C)cc1)-c1c(OC)c(OC)cc3c1C(C2)N(C)CC3` (stereo not drawn) [Compound 3], the concentration for half-maximal inhibition (IC50) in test [1] (setting [7]) amounted to 16.1 µM; in test [2] (setting [5]), 19.1 µM; in test [3] (setting [6]) it was 25.6 µM.

`COc1cc(NC(=O)Nc2ccc(SC)cc2)c2c(c1O)-c1c(OC)c(OC)cc3c1C(C2)N(C)CC3` (stereo not drawn) [Compound 4, 8-(N-(4′-methylsulfide-phenyl))-ureido-isocorydine]: the concentration for half-maximal inhibition (IC50) in test [1] (setting [4]) was 53.2 µM; in test [2] (setting [8]), 46.6 µM; in test [3] (setting [9]) it was 47.8 µM.

As to `COc1cc(NC(=O)Nc2ccccc2Cl)c2c(c1O)-c1c(OC)c(OC)cc3c1C(C2)N(C)CC3` (stereo not drawn) [Compound 5, 8-(N-(2′-dichloro-phenyl))ureido-isocorydine], the IC50 in test [1] (setting [4]) was determined as 36.7 µM; in test [2] (setting [8]) it was 36.9 µM; in test [3] (setting [9]), 35.2 µM.

Turning to `COc1cc(NC(=O)Nc2ccccc2Cl)c2c(c1OC(=O)Nc1ccccc1Cl)-c1c(OC)c(OC)cc3c1C(C2)N(C)CC3` (stereo not drawn) [Compound 6], the half-inhibitory concentration (IC50) turned out to be 17.2 µM in test [1] (setting [7]), 27.1 µM in test [2] (setting [5]) and 26.9 µM in test [3] (setting [6]).

For the compound `COc1cc(NC(=O)Nc2ccccc2C)c2c(c1OC(=O)Nc1ccccc1C)-c1c(OC)c(OC)cc3c1C(C2)N(C)CC3` (stereo not drawn) [Compound 7], the figures for the concentration for half-maximal inhibition (IC50) in test [1] (setting [7]), in test [2] (setting [5]) and in test [3] (setting [6]) were 31.4 µM, 43.9 µM and 22.8 µM, respectively.

With `COc1cc(NC(=O)Nc2ccc(C(F)(F)F)cc2)c2c(c1O)-c1c(OC)c(OC)cc3c1C(C2)N(C)CC3` (stereo not drawn) [Compound 8, 8-(N-(4′-trifluoromethyl-phenyl))-ureido-isocorydine], the concentration for half-maximal inhibition (IC50) was found to be 45.9 µM in test [1] (setting [4]), 49 µM in test [2] (setting [8]) and 57.3 µM in test [3] (setting [9]).

On to `COc1cc(NC(=O)Nc2ccc(C(F)(F)F)cc2)c2c(c1OC(=O)Nc1ccc(C(F)(F)F)cc1)-c1c(OC)c(OC)cc3c1C(C2)N(C)CC3` (stereo not drawn) [Compound 9], for which the IC50 in test [1] (setting [7]) was determined as 44.1 µM; in test [2] (setting [5]), 47.7 µM; in test [3] (setting [6]) it was 39.3 µM.

For the compound `COc1cc(NC(=O)Nc2ccc(F)cc2)c2c(c1OC(=O)Nc1ccc(F)cc1)-c1c(OC)c(OC)cc3c1C(C2)N(C)CC3` (stereo not drawn) [Compound 10], the IC50 worked out at 26.7 µM in test [1] (setting [7]), 26.8 µM in test [2] (setting [5]) and 25.1 µM in test [3] (setting [6]).

Take `COc1cc(NC(=O)c2ccc(Cl)c(C(F)(F)F)c2)c2c(c1O)-c1c(OC)c(OC)cc3c1C(C2)N(C)CC3` (stereo not drawn) [Compound 11, 8-N-(3′-trifluoromethyl-4′-chloro-benzoyl)-isocorydine]: the half-inhibitory concentration (IC50) turned out to be 21.5 µM in test [1] (setting [4]), 16.6 µM in test [2] (setting [8]) and 21.9 µM in test [3] (setting [9]).

As for `COc1cc(NC(=O)/C=C/c2ccccc2)c2c(c1O)-c1c(OC)c(OC)cc3c1C(C2)N(C)CC3` (stereo not drawn) [Compound 12, 8-N-trans-cinnamoyl-isocorydine], the IC50 in test [1] (setting [4]) was 63.4 µM; in test [2] (setting [8]) it was 74.5 µM; in test [3] (setting [9]) it was 37.9 µM.

With `COc1cc(NC(=O)c2cc(Cc3n[nH]c(=O)c4ccccc34)ccc2F)c2c(c1O)-c1c(OC)c(OC)cc3c1C(C2)N(C)CC3` (stereo not drawn) [Compound 13, 8-N-[2-fluoro-5-(4-oxo-3,4-dihydrophthalazin-1-yl)methyl]benzamido isocorydine], the results for the IC50 in test [1] (setting [4]), in test [2] (setting [8]) and in test [3] (setting [9]) were 30.2 µM, 29.6 µM and 27.2 µM, respectively.

Consider `COc1cc(NC(=O)c2cccnc2)c2c(c1O)-c1c(OC)c(OC)cc3c1C(C2)N(C)CC3` (stereo not drawn) [Compound 14, 8-N-nicotinamido-isocorydine], for which the IC50 in test [1] (setting [4]) is 69.8 µM; in test [2] (setting [8]), 49.6 µM; in test [3] (setting [9]), 34.7 µM.

As for `COc1cc(NC(=O)Nc2ccccc2)c2c(c1O)-c1c(OC)c(OC)cc3c1C(C2)N(C)CC3` (stereo not drawn) [Compound 15, 8-N-(phenyl)-ureido-isocorydine], the IC50 in test [1] (setting [4]) was determined as 75.4 µM; in test [2] (setting [5]) it was 62.1 µM; in test [3] (setting [6]), 56.6 µM.

`COc1cc(NC(=O)Nc2ccc(N3CCC(CNC(=O)OC(C)(C)C)CC3)c(C(F)(F)F)c2)c2c(c1O)-c1c(OC)c(OC)cc3c1C(C2)N(C)CC3` (stereo not drawn) [Compound 16, 8-[3-trifluoromethyl-4-(4-methylaminoformic acid tert-butyl ester)piperidine]benzoylureido isocorydine]: the IC50 in test [1] (setting [4]) was 18.9 µM; in test [2] (setting [8]), 22.1 µM; in test [3] (setting [9]), 23.2 µM.

Regarding `CCC(=O)NCC1CCN(c2ccc(NC(=O)Nc3cc(OC)c(O)c4c3CC3c5c(cc(OC)c(OC)c5-4)CCN3C)cc2C(F)(F)F)CC1` (stereo not drawn) [Compound 18, 8-[3-trifluoromethyl-4-(4-methylaminoformic acid propyl ester)-piperidine]benzoylureido isocorydine], the half-inhibitory concentration (IC50) in test [1] (setting [4]) came to 10.7 µM; in test [2] (setting [8]), 12.5 µM; in test [3] (setting [9]) it was 10.4 µM.

`COc1cc(NC(=O)Nc2ccc(N3CCC(NC(=O)OC(C)(C)C)CC3)c(C(F)(F)F)c2)c2c(c1O)-c1c(OC)c(OC)cc3c1C(C2)N(C)CC3` (stereo not drawn) [Compound 19, 8-N-[3′-trifluoromethyl-4′-(4″-aminoformic acid tert-butyl ester-piperidine)-phenyl]-ureido isocorydine]: the concentration for half-maximal inhibition (IC50) was determined as 25.9 µM in test [1] (setting [4]), 26.7 µM in test [2] (setting [8]) and 28.7 µM in test [3] (setting [9]).

As to `COc1cc(NC(=O)Nc2ccc(N3CCC(N)CC3)c(C(F)(F)F)c2)c2c(c1O)-c1c(OC)c(OC)cc3c1C(C2)N(C)CC3` (stereo not drawn) [Compound 20, 8-(N-(3′-trifluoromethyl-4′-(4″-amino-piperidine)-phenyl))-ureido-isocorydine], the half-maximal inhibitory concentration (IC50) in test [1] (setting [4]) amounted to 18.6 µM; in test [2] (setting [8]) it was 13.7 µM; in test [3] (setting [9]), 22.3 µM.

For the compound `COC1=CC(=O)c2cc3c4c(cc(OC)c(OC)c4c2C1=O)CCN3C` [TICD, isocorydione, reference compound], the concentration for half-maximal inhibition (IC50) in test [1] (Table 2, MTT, read-out: IC50 HepG2) was found to be 40 µM; in test [2] (read-out: IC50 Hela, Table 2, MTT) it was 31.3 µM; in test [3] (read-out: IC50 MGC-803, Table 2, MTT) it was 49.6 µM.

In general, IC50 refers to the point on the concentration scale where inhibition reaches its midpoint.

The values above are taken from patent publication US10519132B2, “Isocorydine derivatives, preparation method and use thereof” (Lanzhou Institute of Chemical Physics, Chinese Academy of …, priority 2017, dated 2019).
